Results on one molecule are retold here after patent US8071645B2, “Systems and methods for treating human inflammatory and proliferative diseases and wounds, with fatty acid metabolism inhibitors and/or glycolytic inhibitors” (The Regents of the University of Colorado, priority 2003, dated 2011).

What all share (type): cell-based
Test [1] concerns cell-surface Fas on drug sensitive L1210 cells. The test can be described thus: cell-surface Fas expression on L1210 cells by flow cytometry. As for the experimental part: Flow Cytometry. Cells were harvested, counted, and resuspended at 10^6 cells/100 μl of PBS containing 2.5% fetal calf serum in preparation for flow cytometric analysis. Cells were stained for intracellular H202 using 6-carboxy-2′,7′-dichlorodihydrofluorescein diacetate (DCF-DA, Molecular Probes, Eugene, Oreg.). Briefly, cells were incubated at 37° with 1 mM DCF-DA for 20 minutes, washed twice in PBS containing 2.5% fetal calf serum and analyzed flow cytometrically. Mitochondrial membrane potential was assessed using Mitotracker Red (CM-H2XROS, Molecular Probes, Eugene, Oreg.). […] The cells were incubated at 37° for 20 minutes, washed twice in PBS containing 2.5% fetal calf serum and analyzed flow cytometrically. Data were acquired on a Coulter Elite Epics or Excel flow cytometer (Coulter, Hialeah, Fla.) and analyzed with CellQuest software, (Becton Dickinson, San Jose, Calif.). […] Each sample population was classified for cell size (forward scatter) and complexity (side scatter), gated on a population of interest and evaluated using 5,000 cells. […]
Drug sensitive L1210 cells and drug resistant L1210/DDP cells were cultured with etomoxir for 24 hours (Tx indicates treatment with etomoxir). The level of cell-surface Fas was determined using fluorochrome conjugated anti-Fas antibodies and flow cytometry. The Fas levels are measured relative to a control for staining artifacts. […]

The subject of test [2] is cell surface Fas (CD95) on B16F1 melanoma cells. In words: cell surface Fas (CD95) expression on B16F1 melanoma cells. Conditions: 48 hours. As for the experimental part:
Cell Surface Staining. Non-permeabilized cells were stained with antibodies to the cell surface receptors Fas (CD95) (Pharmingen) or with antibodies to uncoupling proteins (anti-UCP2 antibody) (Alpha Diagnostic International). Antibodies for both the isotype control and actual stain were added to the cell suspension, mixed, and then placed on ice for and incubation of 25 minutes in the dark. Subsequently the cells were centrifuged at 300×g for 5 minutes and the supernatant removed. The cells were washed one time with 100 μL of PBS/2.5% FBS and then transferred into flow cytometric tubes containing 500 μL of PBS/2.5% FBS for analysis.
B16F1 melanoma cells were cultured at a concentration of 0.5 to 1 million cells per ml. Cells were harvested and analyzed by flow cytometry. Dot plots are shown in FIG. 15 as functions of live versus dead cells. Each dot on the dot plot represents one cell. Five thousand cells were assessed for forward scatter (FS), as a function of cell size, versus side scatter (SS), as a function of cellular granularity. […]
Referring to FIGS. 17 and 18, B16F1 melanoma cells of Example 12 were untreated or treated with etomoxir at the indicated concentrations for 48 hours. Cells were harvested, stained with fluorochrome conjugated anti-Fas antibody (Pharmingen) and analyzed by flow cytometry.

The subject of test [3] is RD cells (rhabdomyosarcoma cells). The test can be described thus: percent death of RD cells by flow cytometry. The method, then: Dot plots as a function of live versus dead cells. The cells were cultured at a concentration of 0.5 to 1 million cells per ml. Cells were untreated or treated with etomoxir or 2-deoxy-D-glucose at a concentration of 2.5 mM at the indicated concentrations for either 24 or 48 hours. In additional experiments, under each of these culture conditions, the cells were cultured for 24 hours at which time point, polyclonal anti-UCP-2 was added at a 1:1000 dilution of stock provided by Alpha Diagnostics, San Antonio, Tex. Cells were harvested and analyzed by flow cytometry. Each dot on the dot plots of FIGS. 1, 3, 5, 7, 9, and 11 represents one cell. Five thousand cells were assessed for forward scatter (FS), as a function of cell size, versus side scatter (SS), as a function of cellular granularity. The upper ellipse represents live cells by these criterion and the lower ellipse in each dot plot represents the dead cells.
Statistical Analysis, Percents, and Geometric Mean Values Percents. Gating is a tool provided by Cell Quest software and allows for the analysis of a certain population of cells. Gating around both the live and dead cell populations gave a percent of the cell numbers that was in each population. After the gates were drawn, a percent value of dead cells was calculated by taking the number of dead cells divided by the number of total cells and multiplying by one hundred.
Referring to FIGS. 29 and 30, RD cells (rhabdomyosarcoma cells—not drug resistant), cultured as described above under “Materials and Methods” were untreated or treated with etomoxir, with 2-deoxy-D-glucose, or with a combination of etomoxir and 2-deoxy-D-glucose, at concentrations indicated in FIG. 29 for 24 hours. Cells were harvested and analyzed by flow cytometry. […] The percent of cell deaths for RD cells after 24 hours was: (a) 31% when untreated, (b) 57% when treated with etomoxir alone, (c) 46% when treated with 2-deoxy-D-glucose alone, and (d) 66% when treated with the combination of etomoxir and 2-deoxy-D-glucose.
Referring to FIGS. 33 and 34, RD cells, cultured as described in Example 22, were untreated or treated with etomoxir, with 2-deoxy-D-glucose, or with a combination of etomoxir and 2-deoxy-D-glucose, at concentrations indicated in FIG. 33 for 48 hours. Cells were harvested and analyzed by flow cytometry. […] The percent of cell deaths for RD cells after 48 hours was: (a) 36% when untreated, (b) 64% when treated with etomoxir alone, (c) 63% when treated with 2-deoxy-D-glucose alone, and (d) 68% when treated with the combination of etomoxir and 2-deoxy-D-glucose.
A general note: Flow cytometry measures light scatter and fluorescence of single cells or particles in a stream.

Turning to `CCOC(=O)C1(CCCCCCOc2ccc(Cl)cc2)CO1` (stereo not drawn) [etomoxir, 2-(6-(4-chlorophenoxy)-hexyl)-oxirane-2-carboxylic acid ethyl ester], the “cell surface Fas” value in test [1] (cultured with etomoxir for 24 hours, FIG. 7) was “significant increases”. Moreover, the “methotrexate-induced increases in Fas” value in test [1] (etomoxir with methotrexate, FIG. 8) is “increases”. Besides, in test [2] (FIG. 17), the “cell surface Fas expression, live cell population” value was “dose dependent increase”. Also, the “cell surface Fas expression, dead cell population” value in test [2] (FIG. 18) is given as “dose dependent increase”. Moreover, the “percent of cell deaths” value in test [3] (24 hours, concentrations as in FIG. 29) is on record as 57%; in test [3] (48 hours, concentrations as in FIG. 33), 64%.
